Experimental data published in PubChem BioAssay (NCI).
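Briefly, cells in 96-well plates were exposed to five compound concentrations for 48 h, and endpoints were estimated by linear interpolation. TGI: total growth inhibition.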

Assays:
Test in all cases: inhibition of tumour cell growth, NCI panel, 48 h
NCI-H522 lung = test system: NCI-H522 lung
CAKI-1 renal = test system: CAKI-1 renal
DLD-1 colon = test system: DLD-1 colon
786-0 renal = test system: 786-0 renal
HOP-18 NSCLC = test system: HOP-18 NSCLC
CCRF-CEM leukemia = test system: CCRF-CEM leukemia
HOP-62 NSCLC = test system: HOP-62 NSCLC
NCI-H23 lung = test system: NCI-H23 lung
KM20L2 colon = test system: KM20L2 colon
OVCAR-4 ovarian = test system: OVCAR-4 ovarian
OVCAR-8 ovarian = test system: OVCAR-8 ovarian
U251 CNS = test system: U251 CNS
HCC-2998 colon = test system: HCC-2998 colon
DMS 273 small cell lung = test system: DMS 273 small cell lung
MOLT-4 leukemia = test system: MOLT-4 leukemia
SN12C renal = test system: SN12C renal
HL-60(TB) leukemia = test system: HL-60(TB) leukemia
UACC-257 melanoma = test system: UACC-257 melanoma
HOP-92 NSCLC = test system: HOP-92 NSCLC
MALME-3M melanoma = test system: MALME-3M melanoma
SF-295 CNS = test system: SF-295 CNS
RPMI-8226 leukemia = test system: RPMI-8226 leukemia
SK-OV-3 ovarian = test system: SK-OV-3 ovarian
EKVX NSCLC = test system: EKVX NSCLC
SF-268 CNS = test system: SF-268 CNS
SK-MEL-5 melanoma = test system: SK-MEL-5 melanoma
IGROV1 ovarian = test system: IGROV1 ovarian
UACC-62 melanoma = test system: UACC-62 melanoma
NCI-H460 lung = test system: NCI-H460 lung
HT29 colon = test system: HT29 colon
TK-10 renal = test system: TK-10 renal
A498 renal = test system: A498 renal
LXFL 529 NSCLC = test system: LXFL 529 NSCLC
RXF 393 renal = test system: RXF 393 renal
K-562 leukemia = test system: K-562 leukemia
COLO 205 colon = test system: COLO 205 colon
SNB-75 CNS = test system: SNB-75 CNS
HCT-116 colon = test system: HCT-116 colon
UO-31 renal = test system: UO-31 renal
M14 melanoma = test system: M14 melanoma
OVCAR-5 ovarian = test system: OVCAR-5 ovarian
DMS 114 small cell lung = test system: DMS 114 small cell lung
A549 NSCLC = test system: A549 NSCLC
NCI-H226 lung = test system: NCI-H226 lung
SR leukemia = test system: SR leukemia
ACHN renal = test system: ACHN renal
M19-MEL melanoma = test system: M19-MEL melanoma
HCT-15 colon = test system: HCT-15 colon
SNB-19 CNS = test system: SNB-19 CNS
SW-620 colon = test system: SW-620 colon
LOX IMVI melanoma = test system: LOX IMVI melanoma
KM12 colon = test system: KM12 colon
SF-539 CNS = test system: SF-539 CNS
SNB-78 CNS = test system: SNB-78 CNS
OVCAR-3 ovarian = test system: OVCAR-3 ovarian
SK-MEL-2 melanoma = test system: SK-MEL-2 melanoma
SK-MEL-28 melanoma = test system: SK-MEL-28 melanoma

**Q.** For `Fc1ccc(F)c(C2SCc3nc4ccccc4n32)c1` (configuration not stated), which TGI (NCI-H522 lung) is on record?
**A.** > 100 µM

**Q.** What about the TGI (CAKI-1 renal) of the same compound?
**A.** > 100 µM

**Q.** And the TGI (DLD-1 colon)?
**A.** > 100 µM

**Q.** And the TGI (786-0 renal)?
**A.** > 100 µM

**Q.** What about the TGI (HOP-18 NSCLC) of the same compound?
**A.** > 100 µM

**Q.** And the TGI (CCRF-CEM leukemia)?
**A.** > 100 µM

**Q.** What about the TGI (HOP-62 NSCLC) of the same compound?
**A.** > 100 µM

**Q.** And the TGI (NCI-H23 lung)?
**A.** > 100 µM

**Q.** What about the TGI (KM20L2 colon) of the same compound?
**A.** > 100 µM

**Q.** What about the TGI (OVCAR-4 ovarian) of the same compound?
**A.** > 100 µM

**Q.** And the TGI (OVCAR-8 ovarian)?
**A.** > 100 µM

**Q.** And the TGI (U251 CNS)?
**A.** > 100 µM

**Q.** And the TGI (HCC-2998 colon)?
**A.** > 100 µM

**Q.** What about the TGI (DMS 273 small cell lung) of the same compound?
**A.** 64.3 µM

**Q.** And the TGI (MOLT-4 leukemia)?
**A.** 91.6 µM

**Q.** What about the TGI (SN12C renal) of the same compound?
**A.** > 100 µM

**Q.** What about the TGI (HL-60(TB) leukemia) of the same compound?
**A.** 53.9 µM

**Q.** What about the TGI (UACC-257 melanoma) of the same compound?
**A.** > 100 µM

**Q.** And the TGI (HOP-92 NSCLC)?
**A.** > 100 µM

**Q.** What about the TGI (MALME-3M melanoma) of the same compound?
**A.** > 100 µM

**Q.** What about the TGI (SF-295 CNS) of the same compound?
**A.** > 100 µM

**Q.** What about the TGI (RPMI-8226 leukemia) of the same compound?
**A.** > 100 µM

**Q.** And the TGI (SK-OV-3 ovarian)?
**A.** > 100 µM

**Q.** And the TGI (EKVX NSCLC)?
**A.** > 100 µM

**Q.** What about the TGI (SF-268 CNS) of the same compound?
**A.** > 100 µM

**Q.** And the TGI (SK-MEL-5 melanoma)?
**A.** 46.6 µM

**Q.** What about the TGI (IGROV1 ovarian) of the same compound?
**A.** > 100 µM

**Q.** What about the TGI (UACC-62 melanoma) of the same compound?
**A.** > 100 µM

**Q.** What about the TGI (NCI-H460 lung) of the same compound?
**A.** > 100 µM

**Q.** What about the TGI (HT29 colon) of the same compound?
**A.** > 100 µM

**Q.** What about the TGI (TK-10 renal) of the same compound?
**A.** > 100 µM

**Q.** And the TGI (A498 renal)?
**A.** > 100 µM

**Q.** And the TGI (LXFL 529 NSCLC)?
**A.** > 100 µM

**Q.** And the TGI (RXF 393 renal)?
**A.** > 100 µM

**Q.** And the TGI (K-562 leukemia)?
**A.** > 100 µM

**Q.** And the TGI (COLO 205 colon)?
**A.** > 100 µM

**Q.** What about the TGI (SNB-75 CNS) of the same compound?
**A.** > 100 µM

**Q.** And the TGI (HCT-116 colon)?
**A.** > 100 µM

**Q.** And the TGI (UO-31 renal)?
**A.** > 100 µM

**Q.** What about the TGI (M14 melanoma) of the same compound?
**A.** > 100 µM

**Q.** And the TGI (OVCAR-5 ovarian)?
**A.** > 100 µM

**Q.** What about the TGI (DMS 114 small cell lung) of the same compound?
**A.** 68.8 µM

**Q.** And the TGI (A549 NSCLC)?
**A.** > 100 µM

**Q.** What about the TGI (NCI-H226 lung) of the same compound?
**A.** > 100 µM

**Q.** What about the TGI (SR leukemia) of the same compound?
**A.** > 100 µM

**Q.** What about the TGI (ACHN renal) of the same compound?
**A.** > 100 µM

**Q.** And the TGI (M19-MEL melanoma)?
**A.** > 100 µM

**Q.** And the TGI (HCT-15 colon)?
**A.** > 100 µM

**Q.** And the TGI (SNB-19 CNS)?
**A.** > 100 µM

**Q.** What about the TGI (SW-620 colon) of the same compound?
**A.** > 100 µM

**Q.** And the TGI (LOX IMVI melanoma)?
**A.** > 100 µM

**Q.** And the TGI (KM12 colon)?
**A.** > 100 µM

**Q.** And the TGI (SF-539 CNS)?
**A.** > 100 µM

**Q.** And the TGI (SNB-78 CNS)?
**A.** > 100 µM

**Q.** And the TGI (OVCAR-3 ovarian)?
**A.** > 100 µM

**Q.** What does the source list for `CCCCOP(=O)(OCCCC)/C(C#N)=C/c1ccco1`?
**A.** TGI (SK-MEL-2 melanoma): > 100 µM; TGI (CCRF-CEM leukemia): > 100 µM; TGI (HOP-62 NSCLC): > 100 µM; TGI (NCI-H23 lung): > 100 µM; TGI (KM20L2 colon): > 100 µM; TGI (OVCAR-4 ovarian): > 100 µM; TGI (U251 CNS): > 100 µM; TGI (HL-60(TB) leukemia): > 100 µM; TGI (UACC-257 melanoma): > 100 µM; TGI (HOP-92 NSCLC): > 100 µM; TGI (MALME-3M melanoma): > 100 µM; TGI (SF-295 CNS): > 100 µM; TGI (RPMI-8226 leukemia): > 100 µM; TGI (SK-OV-3 ovarian): > 100 µM; TGI (SF-268 CNS): > 100 µM; TGI (IGROV1 ovarian): > 100 µM; TGI (UACC-62 melanoma): > 100 µM; TGI (NCI-H460 lung): > 100 µM; TGI (HT29 colon): > 100 µM; TGI (A498 renal): > 100 µM; TGI (LXFL 529 NSCLC): > 100 µM; TGI (RXF 393 renal): > 100 µM; TGI (COLO 205 colon): > 100 µM; TGI (SNB-75 CNS): > 100 µM; TGI (SK-MEL-28 melanoma): > 100 µM; TGI (HCT-116 colon): > 100 µM; TGI (UO-31 renal): > 100 µM; TGI (M14 melanoma): > 100 µM; TGI (OVCAR-5 ovarian): > 100 µM; TGI (DMS 114 small cell lung): > 100 µM; TGI (ACHN renal): > 100 µM; TGI (M19-MEL melanoma): > 100 µM; TGI (SNB-19 CNS): > 100 µM; TGI (KM12 colon): > 100 µM; TGI (SF-539 CNS): > 100 µM; TGI (SNB-78 CNS): > 100 µM; TGI (OVCAR-3 ovarian): > 100 µM
